According to US20240390315A1, “NUTRITIONAL COMPOSITIONS” (MITOCHOLINE Ltd, priority 2021, published 2024):

Legend:
[1] = plasma, healthy adult males, single oral beverage supplying 550 mg choline, after overnight fasting; ranking among the three supplements
Description: Study: a randomized cross-over study on 12 adult male subjects.
Subjects: 12 healthy adult male subjects (3 placebo and 9 test supplement (each supplement group-3 subjects)) who are between 30 and 60 years of age.
Duration: One-day oral administration of a choline supplement was followed by 1 week of wash-out before the start of administration of the next (different) choline supplement.
Subjects took each of the three supplements in randomized sequence with interspersed wash-out periods of 1 week. […] The beverages were consumed in the morning after overnight fasting. Blood (2.7 ml EDTA) was taken before intake (−0.1 h) and at 0.5, 1, 1.5, 2, 3, 4, 5, and 6 h after intake. Collected blood was immediately centrifuged at 1000×g at room temperature for 10 min. Plasma was separated and stored at −80° C. until analysis. […] Equipment for analysis: TSQ Quantum Discovery MAX tandem mass spectrometer, a Finnigan Surveyor Autosampler Plus, and a Finnigan Surveyor MS Pump Plus (Thermo Fisher Scientific, Dreieich, Germany), and choline, betaine were separated on a Polaris Si-A® column at 40° C. and the components were analyzed.

isolated mitochondria = conditions: rat liver mitochondria incubated 15 min at 37° C. with test substrate, LC-MS/MS; compared with choline chloride
Description: Livers from male Wistar rats were homogenized using a Teflon®-glass Potter-Elvehjem homogenizer in the isolation medium containing 0.25 M sucrose, 0.02 M Tris-HCl, 0.001 M EDTA, pH 7.2. The homogenates prepared in this way were centrifuged at 600 g for 10 min at 4° C. to precipitate nuclei and cell debris. Then the supernatant was separated from the sediment and subjected to centrifugation at 8500 g for 10 min at 4° C. to precipitate mitochondria.

[2] = molecular target: neuronal insulin receptor (Homo sapiens, UniProt P06213); conditions: cited from earlier work
Sequence of neuronal insulin receptor (P06213 28-1382): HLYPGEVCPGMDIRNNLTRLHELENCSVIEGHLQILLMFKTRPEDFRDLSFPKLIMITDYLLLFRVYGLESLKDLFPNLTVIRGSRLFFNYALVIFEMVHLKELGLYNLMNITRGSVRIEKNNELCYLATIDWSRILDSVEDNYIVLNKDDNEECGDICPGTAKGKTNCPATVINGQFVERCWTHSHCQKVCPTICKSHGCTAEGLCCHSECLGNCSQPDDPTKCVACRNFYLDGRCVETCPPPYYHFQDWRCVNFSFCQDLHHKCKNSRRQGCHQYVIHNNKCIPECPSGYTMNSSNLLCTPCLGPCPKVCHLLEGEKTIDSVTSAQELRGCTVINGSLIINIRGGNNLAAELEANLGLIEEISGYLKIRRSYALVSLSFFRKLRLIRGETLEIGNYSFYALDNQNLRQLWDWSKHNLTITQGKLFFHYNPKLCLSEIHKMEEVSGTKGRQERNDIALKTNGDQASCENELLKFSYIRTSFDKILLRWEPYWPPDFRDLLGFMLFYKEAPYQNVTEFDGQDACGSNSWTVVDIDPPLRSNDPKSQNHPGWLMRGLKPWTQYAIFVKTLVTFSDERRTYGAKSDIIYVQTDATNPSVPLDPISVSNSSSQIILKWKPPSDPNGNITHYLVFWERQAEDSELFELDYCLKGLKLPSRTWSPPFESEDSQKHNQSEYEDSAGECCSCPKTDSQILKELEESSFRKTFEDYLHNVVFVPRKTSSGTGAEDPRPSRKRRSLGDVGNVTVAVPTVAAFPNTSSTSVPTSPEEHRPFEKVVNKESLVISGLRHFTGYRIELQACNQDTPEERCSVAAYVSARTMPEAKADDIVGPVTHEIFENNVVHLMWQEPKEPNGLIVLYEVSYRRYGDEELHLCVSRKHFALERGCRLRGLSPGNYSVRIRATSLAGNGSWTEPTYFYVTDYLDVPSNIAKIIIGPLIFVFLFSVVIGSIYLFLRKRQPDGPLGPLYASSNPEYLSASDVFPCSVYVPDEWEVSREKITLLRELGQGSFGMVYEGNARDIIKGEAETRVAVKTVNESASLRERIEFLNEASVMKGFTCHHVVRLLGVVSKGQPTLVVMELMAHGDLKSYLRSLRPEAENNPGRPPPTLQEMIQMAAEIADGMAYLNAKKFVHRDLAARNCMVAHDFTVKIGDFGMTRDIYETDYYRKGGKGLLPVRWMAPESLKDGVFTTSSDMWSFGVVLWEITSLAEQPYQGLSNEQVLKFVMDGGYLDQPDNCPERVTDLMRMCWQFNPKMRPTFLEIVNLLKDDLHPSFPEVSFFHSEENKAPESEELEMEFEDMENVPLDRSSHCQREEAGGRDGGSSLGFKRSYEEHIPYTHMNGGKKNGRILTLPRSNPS

Compound | AUC (0-6 h) of betaine concentrations [1] | betaine yield (concentration of betaine in the incubation medium) (isolated mitochondria) | sensitization of the neuronal insulin receptor [2]
C[N+](C)(C)CCO.O=C([O-])C(O)C(O)C(=O)O (stereo not shown) [choline bitartrate] | dicholine succinate>choline bitartrate>choline chloride |  | 
C[N+](C)(C)CCO.[Cl-] [choline chloride] | lowest |  | 
dicholine succinate [DiSu] |  | higher betaine yields | potent sensitizer
